Tested on: senescent cells in irradiated human laryngeal tumors, palbociclib treated human melanoma cell xenografts, mouse bleomycin-injected lung, mouse lung adenomas
Experiment: Streptavidin-HRP/DAB labeling of tissue sections
Settings: FIG. 5ai-di in comparison to FIGS. 2,3,4
From the text: In the inventive example 2, the derivative LG13 was used to detect senescent cells in tissue sections using streptavidin-horse radish peroxidase (HRP)/DAB labeling.
Tissue sections were obtained from paraffin embedded, formalin fixed: (a) irradiated human laryngeal tumors, (b) palbociclib treated human melanoma cell xenografts, (c) mouse bleomycin-injected lung and (d) mouse lung adenomas. Subsequently, they were immobilized on glass microscopy slides by standard procedures and processed as follows: • a. Deparaffinization for 5 min at room temperature in xylene • b. Gradual rehydration in solutions of descending concentration of ethanol (100%, 80%, 70%, 50% v/v) and finally in TBS (Tris-buffered saline) or PBS (Phosphate-buffered saline) solution. • c. Blocking of endogenous peroxidase activity with 3% H2O2 for 10 min. • d. Gradual dehydration of biopsy material in 50% (v/v) ethanol followed by 70% (v/v) ethanol for 5 min each step. • e. Application of the new compound LG13, linked with biotin, diluted in ethanol and filtered, on biopsy material for 10 min. • f. Quick wash in 50% (v/v) ethanol. • g. Transfer and wash in TBS or PBS solution. • h. Incubation in streptavidin-HRP (horse radish peroxidase) conjugated (dilution 1/200), for ½ hr at room temperature. • i. Quick wash in TBS or PBS solution. • j. […]

CC1(COC(=O)CCCC[C@H]2SC[C@H]3NC(=O)N[C@H]32)Nc2cccc3c(/N=N/c4ccc(/N=N/c5ccccc5)c5ccccc45)ccc(c23)N1 (stereo partly drawn) [LG13, (2-methyl-6-((E)-(4-((E)-phenyldiazenyl)naphthalen-1-yl)diazenyl)-2,3-dihydro-1H-perimidin-2-yl)methyl 5-((3aR,4R,6aS)-2-oxohexahydro-1H-thieno[3,4-d]imidazol-4-yl)pentanoate]
recognition of senescent cells compared to histochemical staining: makes easier the recognition of senescent cells

Source: patent US11034839B2, “Compounds, linked with haptens, for the detection of senescent cells” (THE UNIVERSITY OF MANCHESTER, priority 2016, dated 2021)
